Laboratory results: ChEMBL document CHEMBL5370686, “Design of Novel Series of Antimalarial PMX Inhibitors with Increased Half-Life via Molecular Property Optimization” (ACS Med Chem Lett, 2023)
pIC50: −log10 of the molar value. ≈ marks a conversion by molar mass, not a printed value.

Assays:
[1] = tested on: Plasmodium falciparum; experiment: Antimalarial activity against Plasmodium falciparum 3D7 by SYBR green 1 assay; format: functional, organism-based; details: for pIC50: Plasmodium falciparum, 3D7
[2] = tested on: Cathepsin D versus Plasmepsin X; experiment: Selectivity ratio of IC50 for human Cathepsin D to IC50 for Plasmodium falciparum Plasmepsin X; format: toxicity; details: read-out: Ratio IC50
[3] = Lipophilicity, log D of the compound in octanol/phosphate buffer at pH 7.4 incubated for 90 mins by shake flask method based LC-MS analysis; format: physicochemical; details: for logD at 1.5 h: octanol/phosphate buffer, pH 7.4
[4] = Apparent oral bioavailability in Sprague-Dawley rat plasma at 10 mg/kg administered via gavage by LC-MS/MS analysis; format: ADME, organism-based; details: read-out: Fapp
[5] = Solubility of compound in FeSSIF at pH 5.8 incubated for 1 hr by LC/MS analysis; format: physicochemical
[6] = Intrinsic clearance in human hepatocytes assessed per 10^6 cells at 0.5 uM measured after 120 min by HRMS method; format: ADME, cell-based, Hepatocyte; details: read-out: CLH
[7] = molecular target: Plasmepsin X (Plasmodium falciparum (isolate 3D7), UniProt Q8IAS0); experiment: Inhibition of Plasmodium falciparum Plasmepsin X using Dabcyl-GSMLEVENDAEG-EDANS as substrate preincubated for 30 mins followed by substrate addition and measured every 2 mins for 30 mins by FRET assay
Chain of Plasmepsin X (Q8IAS0 whole entry): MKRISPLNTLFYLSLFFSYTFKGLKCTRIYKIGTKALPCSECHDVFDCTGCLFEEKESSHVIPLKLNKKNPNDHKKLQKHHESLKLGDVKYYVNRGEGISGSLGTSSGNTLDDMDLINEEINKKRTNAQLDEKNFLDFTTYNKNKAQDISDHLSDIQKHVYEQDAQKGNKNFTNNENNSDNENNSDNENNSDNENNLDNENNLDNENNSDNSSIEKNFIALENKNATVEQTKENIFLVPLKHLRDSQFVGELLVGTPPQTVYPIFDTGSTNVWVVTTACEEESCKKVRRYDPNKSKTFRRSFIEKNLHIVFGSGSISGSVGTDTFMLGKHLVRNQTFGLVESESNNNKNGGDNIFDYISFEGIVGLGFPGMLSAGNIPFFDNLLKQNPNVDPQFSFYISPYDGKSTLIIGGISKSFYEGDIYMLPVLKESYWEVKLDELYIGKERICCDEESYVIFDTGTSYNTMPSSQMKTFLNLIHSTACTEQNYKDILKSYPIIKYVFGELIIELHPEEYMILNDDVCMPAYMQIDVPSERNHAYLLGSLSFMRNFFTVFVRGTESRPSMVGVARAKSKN

[8] = molecular target: Cathepsin D (Homo sapiens, UniProt P07339); experiment: Inhibition of human Cathepsin D using Mca-GKPILFFRLK(Dnp)-D-R-NH2 as substrate preincubated for 30 mins followed by substrate addition and measured after 60 mins by FRET assay; format: toxicity
Chain of Cathepsin D (P07339 65-162 limits assumed): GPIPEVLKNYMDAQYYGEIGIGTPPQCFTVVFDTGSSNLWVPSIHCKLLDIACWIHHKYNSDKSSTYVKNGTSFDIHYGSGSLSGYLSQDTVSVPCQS
Chain of Cathepsin D (P07339 169-412 limits assumed): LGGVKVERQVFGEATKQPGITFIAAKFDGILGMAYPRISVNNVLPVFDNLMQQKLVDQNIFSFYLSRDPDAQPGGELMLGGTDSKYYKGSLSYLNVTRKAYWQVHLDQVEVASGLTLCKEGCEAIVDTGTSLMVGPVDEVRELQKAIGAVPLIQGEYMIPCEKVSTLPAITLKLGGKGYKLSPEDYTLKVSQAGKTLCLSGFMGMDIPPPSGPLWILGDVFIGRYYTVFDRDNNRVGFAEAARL

[9] = Drug level treated with (S)-6-(2,3'-dichloro-[1,1'-biphenyl]-3-yl)-2-imino-6-methyl-3-((2S,4S)-2-methyltetrahydro-2H-pyran-4-yl)tetrahydropyrimidin-4(1H)-one in human hepatocytes at 2 uM measured after 120 mins by UHPLC-MS analysis; format: ADME, cell-based, Hepatocyte
[10] = Half-life in Sprague-Dawley rat plasma at 1 mg/kg, iv administered via bolus at LC-MS/MS analysis; format: ADME, organism-based
[11] = AUC in Sprague-Dawley rat plasma at 10 mg/kg, po administered via gavage by LC-MS/MS analysis; format: ADME, organism-based; design: dose 10 mg/kg, route po
[12] = AUC in Sprague-Dawley rat plasma at 1 mg/kg, iv administered via bolus at LC-MS/MS analysis; format: ADME, organism-based; design: dose 1 mg/kg, route iv
[13] = Cmax in Sprague-Dawley rat plasma at 10 mg/kg, po administered via gavage by LC-MS/MS analysis; format: ADME, organism-based; design: dose 10 mg/kg, route po
[14] = Volume of distribution at steady state in Sprague-Dawley rat plasma at 1 mg/kg, iv administered via bolus by LC-MS/MS analysis; format: ADME, organism-based; details: read-out: Vdss
[15] = Clearance in Sprague-Dawley rat plasma at 1 mg/kg, iv administered via bolus by LC-MS/MS analysis; format: ADME, organism-based
[16] = Tmax in Sprague-Dawley rat plasma at 10 mg/kg, po administered via gavage by LC-MS/MS analysis; format: ADME, organism-based
[17] = Drug metabolism in human hepatocytes at 2 uM measured after 120 mins by UHPLC-MS analysis; format: ADME, cell-based, Hepatocyte; details: 2 h
[18] = Drug metabolism in human hepatocytes assessed as (S)-4-(2,3'-dichloro-[1,1'-biphenyl]-3-yl)-4-methyltetrahydropyrimidin-2(1H)-imine formation at 2 uM measured after 120 mins by UHPLC-MS analysis; format: ADME, cell-based, Hepatocyte; details: 2 h

| pIC50 [1] | logD at 1.5 h [3] | solubility at 1 h [5] [µM] | hepatocyte CLint at 0.5 µM [6] [µL/min/1e6 cells] | pIC50 [7] | logD ([3]; octanol/water, pH 7.4, 1.5 h, BLD = below limit of detection) | Drug uptake [9] | half-life [10] [h] | AUC [11] [µM·h] | AUC [12] [µM·h] | Cmax [13] [nM] | Vd [14] [L/kg] | clearance [15] [mL/min/kg] | Tmax [16] [h] | Drug metabolism [17] | Drug metabolism [18] | SMILES | FIC50 [1] [nM] | selectivity ratio [2] | bioavailability [4] [%] | pIC50 [8] |
| --- | --- | --- | --- | --- | --- | --- | --- | --- | --- | --- | --- | --- | --- | --- | --- | --- | --- | --- | --- | --- |
| 7.18 | 3.4 | 69 (≈ 33.2 µg/mL) | 5.7 | 8.28 |  |  |  |  |  |  |  |  |  |  |  | C[C@H]1C[C@@H](N2C(=N)N[C@](C)(c3cccc(-c4ccc(Cl)cc4Cl)c3Cl)CC2=O)CCO1 | 3.5 | 154 |  | 6.11 |
| 6.55 | 2.4 |  | 4.7 | 7.63 |  |  |  |  |  |  |  |  |  |  |  | C[C@@]1(c2cccc(-c3ccc(F)cc3F)c2Cl)CC(=O)N([C@H]2CCC(F)(F)[C@@H](O)C2)C(=N)N1 | 32.5 | 17 |  | 6.40 |
| 7.13 | 2.4 | 1130 (≈ 558 µg/mL) | 3.3 | 7.99 |  |  |  |  |  |  |  |  |  |  |  | C[C@H]1C[C@@H](N2C(=N)N[C@](C)(c3cccc(-c4ccc(F)cc4F)c3Cl)CC2=O)CCS1(=O)=O | 16.7 | 36.5 |  | 6.44 |
| 7.03 | 1.8 | > 1500 | 8.2 | 6.58 |  |  |  |  |  |  |  |  |  |  |  | C[C@H]1C[C@@H](N2C(=N)N[C@](C)(c3cccc(-c4ccc(F)cc4F)c3Cl)CC2=O)CCN1C | 37.4 | 14.5 |  | 5.42 |
| 6.18 | 1.5 | > 1500 | 16 | 5.64 |  |  |  |  |  |  |  |  |  |  |  | CN(C)[C@H]1C[C@@H](N2C(=N)N[C@](C)(c3cccc(-c4ccc(F)cc4F)c3Cl)CC2=O)C1 | 251.5 | 12.5 |  | 4.55 |
| 7.02 | 2.9 | 1010 (≈ 451 µg/mL) | 18 | 8.03 |  |  |  |  |  |  |  |  |  |  |  | C[C@H]1C[C@@H](N2C(=N)N[C@](C)(c3cccc(-c4ccc(F)cc4F)c3Cl)CC2=O)CCO1 | 21.3 | 71 |  | 6.19 |

Further lines, the molecule ahead of its results:

| SMILES | pIC50 [1] | logD at 1.5 h [3] | solubility at 1 h [5] [µM] | hepatocyte CLint at 0.5 µM [6] [µL/min/1e6 cells] | pIC50 [7] | logD ([3]; octanol/water, pH 7.4, 1.5 h, BLD = below limit of detection) | Drug uptake [9] | half-life [10] [h] | AUC [11] [µM·h] | AUC [12] [µM·h] | Cmax [13] [nM] | Vd [14] [L/kg] | clearance [15] [mL/min/kg] | Tmax [16] [h] | Drug metabolism [17] | Drug metabolism [18] | FIC50 [1] [nM] | selectivity ratio [2] | bioavailability [4] [%] | pIC50 [8] |
| --- | --- | --- | --- | --- | --- | --- | --- | --- | --- | --- | --- | --- | --- | --- | --- | --- | --- | --- | --- | --- |
| C[C@H]1C[C@@H](N2C(=N)N[C@](C)(c3cccc(NC(=O)c4cccc(C#N)c4)c3Cl)CC2=O)CCO1 | 8.08 | 1.3 | 1020 (≈ 490 µg/mL) | 4 | 8.12 |  |  |  |  |  |  |  |  |  |  |  | 7.7 | 555 | 18 |  |
| C[C@@H]1C[C@H](N2C(=N)N[C@](C)(c3cccc(-c4cccc(Cl)c4)c3Cl)CC2=O)CC[C@@H]1O | 6.61 | 3.5 | > 1500 | 25 | 8.00 |  |  |  |  |  |  |  |  |  |  |  | 40.9 | 4.7 |  | 7.33 |
| C[C@H]1C[C@@H](N2C(=N)N[C@](C)(c3cccc(-c4ccc(OC(F)(F)F)cc4Cl)c3Cl)CC2=O)CCO1 | 7.11 |  | 833 (≈ 442 µg/mL) | < 3 | 8.02 | Bld |  |  |  |  |  |  |  |  |  |  | 0.8 | 176 |  | 5.80 |
| C[C@H]1C[C@@H](N2C(=N)N[C@](C)(c3cccc(-c4ccc(C5CC5)nc4)c3Cl)CC2=O)CCS1(=O)=O | 7.06 | 2 |  | < 3 | 7.89 |  |  |  |  |  |  |  |  |  |  |  | 27.1 | 206 |  | 5.57 |
| C[C@H]1C[C@@H](N2C(=N)N[C@](C)(c3cccc(-c4ccc5ncn(CC(F)(F)F)c5c4)c3Cl)CC2=O)CCO1 | 7.58 | 2.5 | 378 (≈ 202 µg/mL) | 46 | 7.95 |  |  |  |  |  |  |  |  |  |  |  | 12.4 | 0.3 |  | 8.41 |
| C[C@H]1C[C@@H](N2C(=N)N[C@](C)(c3cccc(-c4ccccc4Cl)c3Cl)CC2=O)CCO1 | 6.98 | 3 | 562 (≈ 251 µg/mL) | 29 | 7.96 |  |  |  |  |  |  |  |  |  |  |  | 28.4 | 204 |  | 5.65 |
| C[C@@]1(c2cccc(-c3cccc(Cl)c3)c2Cl)CC(=O)N([C@H]2CCOC[C@@H]2O)C(=N)N1 | 6.49 | 2.4 | 1390 (≈ 624 µg/mL) | 8.2 | 7.25 |  |  |  |  |  |  |  |  |  |  |  | 135.6 | 3.9 |  | 6.65 |
| C[C@H]1C[C@@H](N2C(=N)N[C@](C)(c3cccc(-c4cncc(Cl)c4)c3Cl)CC2=O)CCO1 | 7.67 | 2.5 | > 1500 | 75 | 8.06 |  |  |  |  |  |  |  |  |  |  |  | 15.2 | 3.5 |  | 7.49 |
| C[C@@]1(c2cccc(-c3cccc(Cl)c3)c2Cl)CCNC(=N)N1 |  |  |  |  |  |  | Active |  |  |  |  |  |  |  |  |  |  |  |  |  |
| C[C@H]1C[C@@H](N2C(=N)N[C@](C)(c3cccc(-c4ccc(OC(F)(F)F)nc4)c3Cl)CC2=O)CCS1(=O)=O | 6.97 | 2.4 | 697 (≈ 380 µg/mL) | < 3 | 7.95 |  |  | 9.2 | 4.68 | 1.6 | 423 | 13.1 | 20 | 4 |  |  | 27.9 | 140 | 29 | 5.81 |
| C[C@H]1C[C@@H](N2C(=N)N[C@](C)(c3cccc(-c4cnn5cccnc45)c3Cl)CC2=O)CCO1 | 6.86 | 1.2 | > 1500 | 18 | 7.65 |  |  |  |  |  |  |  |  |  |  |  | 131.3 | 59 |  | 5.89 |
| C[C@H]1C[C@@H](N2C(=N)N[C@](C)(c3cccc(-c4cccc(Cl)c4)c3Cl)CC2=O)CCO1 | 7.03 | 3.7 | 664 (≈ 296 µg/mL) | 26 | 8.11 |  |  |  |  |  |  |  |  |  | Metabolite_Detected | Metabolite_Detected | 16.2 | 1.3 |  | 7.97 |
| C[C@H]1C[C@@H](N2C(=N)N[C@](C)(c3cccc(-c4ccc(OC(F)F)nc4)c3Cl)CC2=O)CCS1(=O)=O | 7.07 | 2.1 | 1030 (≈ 543 µg/mL) | < 3 | 7.97 |  |  |  |  |  |  |  |  |  |  |  | 23.4 | 53.9 |  | 6.23 |
